Experimental data taken from patent US7365160B2, “Mutated constitutively active nuclear orphan receptor” (The United States of America as represented by the …, priority 2002, dated 2008).

Tests used:
mCAR T176V / T176L = assay: luciferase reporter gene activation assay (PBREM) in HepG2 cells, mCAR Thr176 mutants; settings: T176V or T176L; did not require exogenous SRC-1
[1] = test system: chimeric receptors hmm and hhm; assay: luciferase reporter assay in HepG2 cells, chimeric receptors with mouse LBD; format: cell-based, mouse/human; settings: chimeras hmm and hhm repressed by KN-62
mCAR L352A = biological target: T1, mCAR L352A (Mus musculus, UniProt O35627, L352A); assay: luciferase reporter gene activation assay (PBREM) in HepG2 cells, mCAR L352A mutant; format: cell-based; settings: only in the presence of exogenous SRC-1
T1 construct: mCAR and hCAR expression vectors were constructed by cloning an entire mCAR; expressed in transfected cells; host or cells: HepG2
T1 sequence (O35627 1-358 L352A): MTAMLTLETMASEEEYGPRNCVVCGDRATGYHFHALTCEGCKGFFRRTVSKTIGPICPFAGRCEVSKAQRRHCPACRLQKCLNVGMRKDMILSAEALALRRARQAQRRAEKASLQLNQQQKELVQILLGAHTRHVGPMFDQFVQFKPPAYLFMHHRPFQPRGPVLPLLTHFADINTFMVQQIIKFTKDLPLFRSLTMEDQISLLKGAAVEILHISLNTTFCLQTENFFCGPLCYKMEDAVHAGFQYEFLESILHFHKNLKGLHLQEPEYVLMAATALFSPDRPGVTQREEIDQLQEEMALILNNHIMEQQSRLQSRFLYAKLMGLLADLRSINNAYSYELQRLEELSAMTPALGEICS
From the text: To examine the role of Leu352 in mCAR activity, site-directed mutagenesis was used as described in EXAMPLES 2 and 6.

Clc1cnc(Oc2ccc(Oc3ncc(Cl)cc3Cl)cc2)c(Cl)c1 [TCPOBOP, 1,4-bis [2-(3,5-dichloropyridyloxy)]benzene]
activation of mutated mCAR (mCAR T176V / T176L): effectively activated
re-activation of KN-62-repressed chimeric receptors [1]: re-activated
activation of L352A mutant (mCAR L352A): activated
